Reference: publication PMC11036874, “In vitro characterization of [^125I]HY-3-24, a selective ligand for the dopamine D3 receptor” (Frontiers in Neuroscience, 2024)

Legend:
[1] = target: T1, human D2R (Homo sapiens, UniProt P14416); experiment: D2R radioligand binding assay with [125I]IABN; conditions: human D2R transfected HEK293 cell membranes, mean ± SEM of three experiments
T1 construct: expressed in transfected cells; host or cells: HEK293
Procedure: (§1) The dopamine receptor binding assay was performed according to previous studies ([Luedtke et al., 2000]; [Vangveravong et al., 2006]; [Reilly et al., 2017]), and human D2R or D3R or D4 transfected HEK293 cells were used for dopamine receptor binding assay. The cells were grown in Dulbecco’s Modified Eagle Medium including 10% FBS, 0.1% Penn Strep, […] of geneticin (G418) for human D2R or D3R transfected HEK293 cells, and […] of puromycin for human D4 HEK293 cells at 5% CO2, 37°C. The cells were collected by centrifuge (6,000 × g, 10 min), and the supernatant was discarded. Cold homogenization buffer (50 mM Na Hepes, 0.1 mM EDTA, 1 mM DTT, pH 7.4) was added into the pellet and homogenized by a polytron (Brinkmann Instruments, Westbury, NY, United States), and centrifuged at 40,000 × g for 10 min. This process was repeated two more times to get final pellet, and the membranes were then resuspended with HB buffer including 5 mM MgCl2 and stored at −80°C until use.
(§2) HY-3-24 was prepared in 10^−5 to 10^−11 M concentration range with assay buffer (50 mM Tris–HCl, 150 mM NaCl, 10 mM EDTA, pH 7.5). […] The membrane was washed with cold buffer (three times), and collected filters were counted on a gamma counter (GMI, Minnesota, United States). The results were analyzed by nonlinear regression, and the data were reported mean ± SEM values by three independent experiments.

[2] = target: T2, human D4 (Homo sapiens, UniProt P21917); experiment: D4R radioligand binding assay with [125I]IABN; conditions: human D4 transfected HEK293 cell membranes, mean ± SEM of three experiments
T2 construct: expressed in transfected cells; host or cells: HEK293
Procedure: as §1, §2

[3] = target: T3, sigma-1 (Cavia porcellus, UniProt Q60492); experiment: Sigma-1 binding assay with [3H]-(+)-pentazocine; conditions: guinea pig brain homogenates
T3 construct: from tissue; host or cells: guinea pig brain homogenates
Procedure: The preparation of protein homogenates and sigma binding assay were conducted as described previously ([Luedtke et al., 2000]). For sigma-1 binding assay, [^3H]-(+)-pentazocine (50 μL, ~50,000 cpm) and HY-3-24 (concentrations ranging from 10^−5 to 10^−11 M) were mixed, guinea pig brain homogenates (100 μg/100 μL) were added and the mixture was incubated at 5% CO2, 37°C for 90 min. The assay was terminated by adding cold buffer (10 mM Tris–HCl, 150 mM NaCl, pH 7.5), and the mixture was filtered htrough Whatman CF/C filters (Brandel Inc., Maryland, United States) which were soaked in 1% polyethyleneimine (PEI). The collected filter was washed three times using cold buffer; non-specific binding was determined in the presence of 10 μM of haloperidol. The collected filters were mixed with 3 mL of microscint™20 by and counted overnight (1 min/well) using a beta counter (MicroBeta^2®, PerkinElmer, United Kingdom). The data were analyzed using PRISM 9.

[4] = target: human D3R (Homo sapiens, UniProt P35462); experiment: D3R radioligand binding assay with [125I]IABN; parameters: expressed in transfected cells; host or cells: HEK293
Procedure: as §1
HY-3-24 was prepared in 10^−5 to 10^−11 M concentration range with assay buffer (50 mM Tris–HCl, 150 mM NaCl, 10 mM EDTA, pH 7.5). Membrane homogenates (5–15 μg) and [^125I]IABN (approximately 0.5 nM) was added into serial dilutions of the compound and incubated at 37°C, for 60 min. Total binding volume was 150 μL, and 20 μM of (+)-butaclamol was used to define non-specific binding. Cold buffer (10 mM Tris–HCl, 150 mM NaCl, pH 7.5) was added into the reaction tube to terminate binding assay, and mixture was quickly filtered through a Schleicher and Schuell No.32 filter (GE Heathcare Bio-Sciences, Pittsburgh, PA, United States). The membrane was washed with cold buffer (three times), and collected filters were counted on a gamma counter (GMI, Minnesota, United States). The results were analyzed by nonlinear regression, and the data were reported mean ± SEM values by three independent experiments.

[5] = [125I]IABN, human D3R transfected HEK293 cell membranes, mean ± SEM of three experiments

human D3R, sequence (P35462 whole entry): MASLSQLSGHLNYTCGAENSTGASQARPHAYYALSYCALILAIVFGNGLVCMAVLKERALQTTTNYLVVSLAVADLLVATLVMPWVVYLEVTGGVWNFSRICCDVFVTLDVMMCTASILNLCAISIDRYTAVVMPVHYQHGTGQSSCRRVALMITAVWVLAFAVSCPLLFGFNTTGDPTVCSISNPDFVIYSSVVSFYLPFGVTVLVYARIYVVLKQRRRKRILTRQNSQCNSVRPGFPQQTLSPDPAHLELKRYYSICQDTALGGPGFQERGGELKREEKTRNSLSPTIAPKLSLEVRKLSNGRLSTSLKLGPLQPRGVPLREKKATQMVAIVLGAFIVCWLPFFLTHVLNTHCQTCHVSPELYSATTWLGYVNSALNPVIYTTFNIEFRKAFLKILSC
T2 sequence (P21917 whole entry): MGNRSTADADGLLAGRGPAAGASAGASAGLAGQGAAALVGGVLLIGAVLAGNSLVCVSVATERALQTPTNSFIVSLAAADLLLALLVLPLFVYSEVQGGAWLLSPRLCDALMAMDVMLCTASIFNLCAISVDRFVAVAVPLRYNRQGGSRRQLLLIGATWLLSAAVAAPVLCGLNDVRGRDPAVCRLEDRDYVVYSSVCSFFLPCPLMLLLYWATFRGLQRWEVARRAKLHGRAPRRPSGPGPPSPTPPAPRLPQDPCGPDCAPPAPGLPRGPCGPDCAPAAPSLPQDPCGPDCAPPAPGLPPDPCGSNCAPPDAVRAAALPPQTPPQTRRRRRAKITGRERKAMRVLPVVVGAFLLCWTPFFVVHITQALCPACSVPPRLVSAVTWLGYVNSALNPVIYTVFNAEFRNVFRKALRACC
T3 sequence (Q60492 whole entry): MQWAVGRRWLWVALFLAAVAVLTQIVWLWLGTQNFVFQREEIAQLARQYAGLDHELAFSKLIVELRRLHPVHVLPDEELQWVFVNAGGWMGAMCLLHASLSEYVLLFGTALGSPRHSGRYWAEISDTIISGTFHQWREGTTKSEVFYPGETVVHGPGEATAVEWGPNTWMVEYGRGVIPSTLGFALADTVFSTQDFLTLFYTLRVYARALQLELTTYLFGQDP
T1 sequence (P14416 whole entry): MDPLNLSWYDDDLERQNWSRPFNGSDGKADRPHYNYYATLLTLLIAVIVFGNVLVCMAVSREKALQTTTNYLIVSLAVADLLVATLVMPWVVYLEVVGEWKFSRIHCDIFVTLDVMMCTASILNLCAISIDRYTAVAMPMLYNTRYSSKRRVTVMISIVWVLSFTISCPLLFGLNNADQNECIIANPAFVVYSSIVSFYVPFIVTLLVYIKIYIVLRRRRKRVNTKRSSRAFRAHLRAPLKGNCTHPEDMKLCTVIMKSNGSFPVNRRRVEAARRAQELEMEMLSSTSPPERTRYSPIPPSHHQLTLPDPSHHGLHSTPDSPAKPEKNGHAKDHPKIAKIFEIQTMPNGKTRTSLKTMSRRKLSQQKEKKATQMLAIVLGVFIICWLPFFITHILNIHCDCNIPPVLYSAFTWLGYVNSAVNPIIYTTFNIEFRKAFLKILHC

CCN(CCCNC(=O)c1ccc(-c2ccncc2)cc1)CCNC(=O)c1cc(I)cc(OC)c1OC [HY-3-24, N-(2-(Ethyl(3-(4-(pyridin-4-yl)benzamido)propyl)amino)ethyl)-5-iodo-2,3-dimethoxybenzamide]
Ki [1]: 86.7 ± 11.9 nM | Ki [2]: > 1000 nM | Ki D4R ([2]; listed as HY-2-34): negligible | binding to sigma-1 receptors [3]: did not bind | binding to sigma-1 receptors ([3]; listed as HY-2-34): low affinity | Ki [4, 5]: 0.67 ± 0.11 nM | Ki D3R [4, 5]: sub-nM affinity | selectivity for D3R vs. D2R ([4]; from Ki values, [125I]IABN): ~ 129 fold | D2/D3 ratio ([4]; ratio of Ki D2R to Ki D3R): 129
